From patent US9890117B2, “Benzamide compounds and related methods of use” (Northwestern University, priority 2012, dated 2018)
Where a name gives a salt, the structure may show the parent alone.

Biological target: T1, SIRT2 (Homo sapiens, UniProt Q8IXJ6)
T1 construct: recombinant active enzymes SIRT1, SIRT2, and the catalytically active fragment of SIRT3
T1 sequence (Q8IXJ6 1-389): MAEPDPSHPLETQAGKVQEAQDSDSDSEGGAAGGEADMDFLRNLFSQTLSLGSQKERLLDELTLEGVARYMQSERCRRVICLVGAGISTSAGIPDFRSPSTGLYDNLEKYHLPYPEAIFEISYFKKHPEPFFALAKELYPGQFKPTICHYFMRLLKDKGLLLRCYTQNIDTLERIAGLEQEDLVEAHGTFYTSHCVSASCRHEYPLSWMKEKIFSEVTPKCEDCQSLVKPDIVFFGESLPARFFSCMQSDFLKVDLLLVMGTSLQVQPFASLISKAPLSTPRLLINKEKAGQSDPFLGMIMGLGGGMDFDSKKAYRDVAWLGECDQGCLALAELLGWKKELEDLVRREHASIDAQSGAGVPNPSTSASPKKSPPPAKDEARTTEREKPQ
Assay: Fluor-de-Lys biochemical sirtuin deacetylation assay, SIRT2
Details: for SIRT2 inhibition potency compared with AK-1: dose-response, five doses, side-by-side with AK-1

[1] = sulfone, sulfoxide, thioether derivatives of C2-8 scaffold

inhibition at 10 µM [%]	Structure (SMILES)	other results
65	N#Cc1ccc(NC(=O)c2cccc3c2CCN(Cc2ccc(F)c(F)c2)C3)cc1 [Compound 225m, N-(4-cyanophenyl)-2-(3,4-difluorobenzyl)-1,2,3,4-tetrahydroisoquinoline-5-carboxamide hydrochloride]	
	C[S+]([O-])c1cccc(NC(=O)c2cccc(S(=O)(=O)N3CCCCCC3)c2)c1 (centres unmarked) [Compound 141, 3-(azepan-1-ylsulfonyl)-N-(3-(methylsulfinyl)phenyl)benzamide]	% of SIRT2 Inhibition at 10 μM (AK-1 derivatives): 1%
56	COc1ccc(NC(=O)c2cccc(OC(C)c3ccc(C(C)=O)cc3)c2)cc1 (centres unmarked) [Compound 216Ax, 3-(1-(4-acetylphenyl)ethoxy)-N-(4-methoxyphenyl)benzamide]	
80	N#Cc1ccc(NC(=O)c2cccc(CN3CCc4cc(Br)ccc4C3)c2)cc1 [Compound 225q, 3-((6-bromo-3,4-dihydroisoquinolin-2(1H)-yl)methyl)-N-(4-cyanophenyl)benzamide hydrochloride]	
19	CCN(CC)CCOc1cc(OCc2ccc(C#N)cc2)cc(C(=O)Nc2ccc(C#N)cc2)c1 [Compound 216y, 3-((4-cyanobenzyl)oxy)-N-(4-cyanophenyl)-5-(2-(diethylamino)ethoxy)benzamide]	
70	CC(=O)c1ccc(C(C)Oc2cccc(C(=O)Nc3ccc(S(C)(=O)=O)cc3)c2)cc1 (centres unmarked) [Compound 216Bb, 3-(1-(4-acetylphenyl)ethoxy)-N-(4-(methylsulfonyl)phenyl)benzamide]	
27	N/C(=N/c1cccc([N+](=O)[O-])c1)c1cccc(S(=O)(=O)N2CCCCCC2)c1 [Compound 234e, 3-(azepan-1-ylsulfonyl)-N′-(3-nitrophenyl)benzimidamide]	
	C[S+]([O-])c1ccc(NC(=O)c2cccc(S(=O)(=O)Cc3ccc(Cl)cc3)c2)cc1 (centres unmarked) [Compound 188, 3-((4-chlorobenzyl)sulfonyl)-N-(4-(methylsulfinyl)phenyl)benzamide]	% of SIRT2 Inhibition at 10 μM [1]: 18%
34	CC(=O)c1ccc(C(C)(C)Oc2cccc(C(=O)Nc3ccc(Br)cc3)c2)cc1 [Compound 216At, 3-((2-(4-acetylphenyl)propan-2-yl)oxy)-N-(4-bromophenyl)benzamide]	
95	CC(=O)c1ccc([C@@H](C)Oc2cncc(C(=O)Nc3ccc(C#N)cc3)c2)cc1 [Compound 216An, (R)-5-(1-(4-acetylphenyl)ethoxy)-N-(4-cyanophenyl)nicotinamide]	
	O=C(Nc1ccc(Br)cc1)c1cccc(S(=O)(=O)Cc2ccc(Cl)cc2)c1 [Compound 172, N-(4-bromophenyl)-3-((4-chlorobenzyl)sulfonyl)benzamide]	inhibition at 10 µM [1]: 0%
	C[S+]([O-])c1cccc(NC(=O)c2cccc(S(=O)(=O)N3CCCCCC3)c2)c1 (centres unmarked) [Compound 138, 3-(azepan-1-ylsulfonyl)-N-(3-(methylsulfinyl)phenyl)benzamide]	% of SIRT2 Inhibition at 10 μM (AK-1 derivatives): 4%
85	CC(=O)c1ccc(C(C)Oc2cccc(C(=O)Nc3ccc(Br)cc3)c2)cc1 (centres unmarked) [Compound 216Ba, 3-(1-(4-acetylphenyl)ethoxy)-N-(4-bromophenyl)benzamide]	
27	CC(=O)c1ccc(COc2cccc(C(=O)Nc3ccc(C#N)cc3)c2)cc1 [Compound 216Ar, 3-((4-acetylbenzyl)oxy)-N-(4-cyanophenyl)benzamide]	
60	CC(=O)c1ccc([C@H](C)Oc2cccc(C(=O)Nc3ccc(C#N)cc3)c2)cc1 [Compound 216Al, (S)-3-(1-(4-acetylphenyl)ethoxy)-N-(4-cyanophenyl)benzamide]	
0	CN(C(=O)c1cncc(CN(Cc2ccc(F)c(F)c2)C2CC2)c1)c1ccc(C#N)cc1 [Compound 225n, N-(4-cyanophenyl)-5-((cyclopropyl(3,4-difluorobenzyl)amino)methyl)-N-methylnicotinamide hydrochloride]	
0	CC(O)c1ccc([C@@H](C)Oc2cncc(C(=O)Nc3ccc(C#N)cc3)c2)cc1 (stereo partly drawn) [Compound 216Aq, N-(4-cyanophenyl)-5-((1R)-1-(4-(1-hydroxyethyl)phenyl)ethoxy)nicotinamide]	
43	CC(Oc1cccc(C(=O)Nc2ccc(C#N)cc2)c1)c1ccc(C2(C)COC2)cc1 (centres unmarked) [Compound 216Aj, N-(4-cyanophenyl)-3-(1-(4-(3-methyloxetan-3-yl)phenyl)ethoxy)benzamide]	
25	N#Cc1ccc(COc2cc(OC[C@@H](O)CO)cc(C(=O)Nc3ccc(C#N)cc3)c2)cc1 [Compound 216x, (S)-3-((4-cyanobenzyl)oxy)-N-(4-cyanophenyl)-5-(2,3-dihydroxypropoxy)benzamide]	

inhibition at 10 µM [%]	Structure (SMILES)	other results
30	CN(c1ccc(Br)cc1)S(=O)(=O)c1cccc(C(=O)Nc2ccc(Br)cc2F)c1 [Compound 203r, N-(4-bromo-2-fluorophenyl)-3-(N-(4-bromophenyl)-N-methylsulfamoyl)benzamide]	
58	CC(=O)c1ccc(C(C)Oc2cccc(C(=O)Nc3ccc(CC#N)cc3)c2)cc1 (centres unmarked) [Compound 216Az, 3-(1-(4-acetylphenyl)ethoxy)-N-(4-(cyanomethyl)phenyl)benzamide]	
	CSc1ccc(CSc2cccc(C(=O)Nc3ccc(C#N)cc3)c2)cc1 [Compound 183, N-(4-cyanophenyl)-3-((4-(methylthio)benzyl)thio)benzamide]	inhibition at 10 µM [1]: 83%
38	C[C@@H](N)c1ccc(N(C)S(=O)(=O)c2cccc(C(=O)Nc3ccc(C#N)cc3)c2)cc1 [Compound 203At, (R)-3-(N-(4-(1-aminoethyl)phenyl)-N-methylsulfamoyl)-N-(4-cyanophenyl)-benzamide hydrochloride]	
	CN(c1ccc(Br)cc1)S(=O)(=O)c1cccc(C(=O)Nc2ccc(Cl)nn2)c1 [Compound 85, 3-(N-(4-bromophenyl)-N-methylsulfamoyl)-N-(6-chloropyridazin-3-yl)benzamide]	inhibition at 10 µM (C2-8 derivatives): 16%
	CS(=O)(=O)c1ccc(NC(=O)c2cccc(S(=O)(=O)Cc3ccc(Cl)cc3)c2)cc1 [Compound 177, 3-((4-chlorobenzyl)sulfonyl)-N-(4-(methylsulfonyl)phenyl)benzamide]	inhibition at 10 µM [1]: 17%
3	CC(=O)c1ccc(CN(Cc2cncc(C(=O)N(C)c3ccc(C#N)cc3)c2)C2CC2)cc1 [Compound 225s, 5-(((4-acetylbenzyl)(cyclopropyl)amino)methyl)-N-(4-cyanophenyl)-N-methylnicotinamide hydrochloride]	
9	O=C(Nc1ccc(Cl)cc1)c1cncc(CN(Cc2ccc(F)c(F)c2)C2CC2)c1 [Compound 225t, N-(4-chlorophenyl)-5-((cyclopropyl(3,4-difluorobenzyl)amino)methyl)nicotinamide hydrochloride]	
	CN(c1ccc(S(C)(=O)=O)cc1)S(=O)(=O)c1cccc(C(=O)Nc2ccc(Cl)cc2)c1 [Compound 117, N-(4-Chlorophenyl)-3-(N-methyl-N-(4-(methylsulfonyl)phenyl)sulfamoyl)benzamide]	SIRT2 inhibition potency compared with AK-1: equal or just slightly better potency
64	N#Cc1ccc(NC(=O)c2cccc(CN(Cc3cc(F)cc(F)c3)C3CC3)c2)cc1 [Compound 225f, N-(4-cyanophenyl)-3-((cyclopropyl(3,5-difluorobenzyl)amino)methyl)benzamide hydrochloride]	
61	CN(C)c1cccc(NC(=O)c2cccc(S(=O)(=O)N3CCCCCC3)c2)c1 [Compound 203j, 3-(azepan-1-ylsulfonyl)-N-(3-(dimethylamino)phenyl)benzamide]	
37	CCC(CC)Oc1cccc(C(=O)Nc2ccc(C#N)cc2)c1 [Compound 216Ao, N-(4-cyanophenyl)-3-(pentan-3-yloxy)benzamide]	
	CC(=O)c1ccc(NC(=O)c2cccc(S(=O)(=O)N(C)c3ccc(C(C)=O)cc3)c2)cc1 [Compound 109, N-(4-Acetylphenyl)-3-(N-(4-acetylphenyl)-N-methylsulfamoyl)benzamide]	SIRT2 inhibition potency compared with AK-1: equal or just slightly better potency
	O=C(Nc1ccc(Cl)cc1)c1cccc(S(=O)(=O)Cc2ccc(Cl)cc2)c1 [Compound 171, 3-((4-chlorobenzyl)sulfonyl)-N-(4-chlorophenyl)benzamide]	inhibition at 10 µM [1]: 0%
0	CN(c1ccc(Cl)cc1)S(=O)(=O)c1cccc(NC(=O)Nc2ccc(Cl)cc2)c1 [Compound 233a, N-(4-chlorophenyl)-3-(3-(4-chlorophenyl)ureido)-N-methylbenzenesulfonamide]	
	N#Cc1ccc(NC(=O)c2cccc(S(=O)(=O)Cc3ccc(Cl)cc3)c2)nc1 [Compound 176, 3-((4-chlorobenzyl)sulfonyl)-N-(5-cyanopyridin-2-yl)benzamide]	inhibition at 10 µM [1]: 36%
28	N#Cc1ccc(NC(=O)c2cccc(NCc3ccc(F)cc3)c2)nc1 [Compound 221b, N-(5-cyanopyridin-2-yl)-3-((4-fluorobenzyl)amino)benzamide]	
77	CC(=O)c1ccc(C(C)Oc2cccc(C(=O)Nc3ccc(C(F)(F)F)cc3)c2)cc1 (centres unmarked) [Compound 216Bc, 3-(1-(4-acetylphenyl)ethoxy)-N-(4-(trifluoromethyl)phenyl)benzamide]	
39	C[C@H](N)c1ccc(N(C)S(=O)(=O)c2cccc(C(=O)Nc3ccc(C#N)cc3)c2)cc1 [Compound 203Au, (S)-3-(N-(4-(1-aminoethyl)phenyl)-N-methylsulfamoyl)-N-(4-cyanophenyl) benzamide hydrochloride]	
